Key:
human plasma = experiment: Activated partial thromboplastin time (APTT) test, human plasma; type: biochemical; conditions: for anticoagulant activity (in words): APTT test; for Increase in Coagulation Time: increase in coagulation time (seconds) from a 1 μg/ml increase in concentration, linear regression, pooled plasma from 90 donors; for Relative Increase in Coagulation Time: Human plasma, vs untreated control; for Coagulation Time: PI-88 8.6 μg/ml
Description: Heparin (anticoagulant activity 120 U/mg) is included for comparison. Data obtained with pooled plasma from 90 donors, the coagulation time of the plasma being 30.8 seconds in the absence of inhibitors. Results representative of four separate experiments. Table 1 summarises the anticoagulant activity of 19 sulfated oligosaccharides, as measured by the activated partial thromboplastin time (APTT) test. Similar results were obtained with the thrombin time test. […] Chain length, monosaccharide makeup and linkage, all appear to be critical factors. […] Furthermore, a striking feature of the maltose series is that chain elongation y a single residue from the maltotetraose to maltopentaose results in a 19-fold increase in anticoagulant activity. […] The glucose series of oligosaccharides emphasizes the importance of monosaccharide linkage on activity. […] There are additional, more subtle, effects of monosaccharide linkage on anticoagulant activity. […] Values | obtained from a linear regression analysis of the coagulation data. |^a Coagulation times estimated using the APTT test. Similar results | were obtained in duplicate assays. Concentrations of heparin and | mannopentaose phosphate SO4 (PI-88) were used which prolonged the |^a Coagulation times estimated by the APTT test. Data expressed as fold | increase in coagulation time induced by the anticoagulant compared with | untreated control.

marmoset plasma = experiment: APTT test, marmoset plasma; type: biochemical; conditions: for Relative Increase in Coagulation Time: APTT, Marmoset plasma, vs untreated control
Description: (§1) Some additional biological properties of one of the sulfated oligosaccharides, PI-88, were defined. […] Protamine is frequently used clinically to reverse the anticoagulant effects of heparin and Fragmin. […] Finally, PI-88 was examined for its ability to act as an anticoagulant in a range of mammalian species. […] Thus, sulfated oligosaccharides potentially can be used as anticoagulants/antithrombotics not only in humans but in a wide range of mammalian species.
(§2) ^a Coagulation times estimated by the APTT test. Data expressed as fold
(§3) increase in coagulation time induced by the anticoagulant compared with […]

sheep plasma = experiment: APTT test, sheep plasma; type: biochemical; conditions: for Relative Increase in Coagulation Time: APTT, Sheep plasma, vs untreated control
Description: as §1, §2, §3

rabbit plasma = experiment: APTT test, rabbit plasma; type: biochemical; conditions: for Relative Increase in Coagulation Time: APTT, Rabbit plasma, vs untreated control
Description: as §1, §2, §3

dog plasma = experiment: APTT test, dog plasma; type: biochemical; conditions: for Relative Increase in Coagulation Time: APTT, Dog plasma, vs untreated control
Description: as §1, §2, §3

rat plasma = experiment: APTT test, rat plasma; type: biochemical; conditions: for Relative Increase in Coagulation Time: APTT, Rat plasma, vs untreated control
Description: as §1, §2, §3

mouse plasma = experiment: APTT test, mouse plasma; type: biochemical; conditions: for Relative Increase in Coagulation Time: APTT, Mouse plasma, vs untreated control
Description: as §1, §2, §3

Human platelet = experiment: Collagen- or ADP-induced platelet aggregation (platelet aggregometer); type: cell-based; conditions: for Relative Rate of Platelet Aggregation, ADP-induced Aggregation: ADP 10 μM, control without PI-88 81 ± 1; for Relative Rate of Platelet Aggregation, ADP-induced Aggregation / Relative Rate of Platelet Aggregation, Collagen-induced Aggregation: ± SD; for Relative Rate of Platelet Aggregation, Collagen-induced Aggregation: collagen 9 μg/ml, control without PI-88 114 ± 8
Procedure: ^a Human platelet aggregation induced by either collagen (9 μg/ml)
or ADP (10 μM) and relative rates of platelet aggregation estimated, in
the presence or absence of PI-88, using a platelet aggregometer. Data ±
SD representative of two platelet donors.

thrombin = experiment: Anti-thrombin III mediated anti-thrombin activity, chromogenic assays; type: biochemical
Description: (§4) The manner by which the sulfated oligosaccharides inhibit the coagulation cascade was then investigated.

factor Xa = experiment: Anti-thrombin III mediated anti-factor Xa activity, chromogenic (Helena) anti-Xa assay; type: biochemical; conditions: FIG. 3
Procedure: Factor Xa activity was determined with the chromogenic (Helena) anti-Xa assay run on a Roche COBAS Fara biochemistry analyser.
as §4

heparin cofactor II = experiment: Plasma free system: purified heparin cofactor II, thrombin and chromogenic thrombin substrate; type: biochemical; conditions: data not shown
Description: as §4

[1] = Inactivation of anticoagulant activity by protamine; type: biochemical
Description: as §1

Chitosan hexamer SO4
anticoagulant activity (in words) (human plasma): negligible anticoagulant activity
Increase in Coagulation Time (human plasma; APTT): 0.4 s/µg

Maltopentaose SO4
anticoagulant activity (in words) (human plasma): quite effective anticoagulants
Increase in Coagulation Time (human plasma; APTT): 5.25 s/µg
increase in anticoagulant activity on chain elongation from maltotetraose to maltopentaose (human plasma; APTT, relative to the maltotetraose sulfate): 19 fold

Maltotriose SO4
Increase in Coagulation Time (human plasma; APTT): 0.25 s/µg

Maltohexaose SO4
anticoagulant activity (in words) (human plasma): quite effective anticoagulants
Increase in Coagulation Time (human plasma; APTT): 5.85 s/µg

Laminariheptaose SO4
Increase in Coagulation Time (human plasma; APTT): 0.5 s/µg

Isomaltohexaose SO4
Increase in Coagulation Time (human plasma; APTT): 6.56 s/µg

Maltoetraose SO4
Increase in Coagulation Time (human plasma; APTT): 0.28 s/µg

Cellohexaose SO4
Increase in Coagulation Time (human plasma; APTT): 4.8 s/µg

Isomaltopentaose SO4
anticoagulant activity (in words) (human plasma): substantially less effective anticoagulant
Increase in Coagulation Time (human plasma; APTT): 1.85 s/µg

Mannopentaose SO4
Increase in Coagulation Time (human plasma; APTT): 5.32 s/µg

Maltose SO4
Increase in Coagulation Time (human plasma; APTT): 0.31 s/µg

Mannopentaose phosphate SO2 (PI-88)
Increase in Coagulation Time (human plasma; APTT): 5.67 s/µg

Cellotetraose SO4
anticoagulant activity (in words) (human plasma): reasonably potent anticoagulant
Increase in Coagulation Time (human plasma; APTT): 4.2 s/µg

Cellopentaose SO4
Increase in Coagulation Time (human plasma; APTT): 3.5 s/µg

Mannopentaose phosphate SO4 (PI-88)
Increase in Coagulation Time (human plasma; APTT): 5.04 s/µg

mannopentaose phosphate sulfate [PI-88]
Relative Increase in Coagulation Time (human plasma; APTT, PI-88 2.24 μg/ml): 1.42 fold
Relative Increase in Coagulation Time (human plasma; APTT, PI-88 22.4 μg/ml): 4.65 fold
Coagulation Time (human plasma; APTT, Mean ± SD of 20 normal donors): 88.3 ± 11.9 s
Coagulation Time (human plasma; APTT, Normal Donor 1): 77.3 s
Coagulation Time (human plasma; APTT, Normal Donor 2): 89.6 s
Coagulation Time (human plasma; APTT, Normal Donor 3): 94.0 s
Coagulation Time (human plasma; APTT, Normal Donor 4): 85.6 s
Coagulation Time (human plasma; APTT, Normal Donor 5): 101.9 s
Coagulation Time (human plasma; APTT, Normal Donor 6): 95.0 s
Coagulation Time (human plasma; APTT, Normal Donor 7): 115.3 s
Coagulation Time (human plasma; APTT, Normal Donor 8): 101.9 s
Coagulation Time (human plasma; APTT, Normal Donor 9): 85.2 s
Coagulation Time (human plasma; APTT, Normal Donor 10): 78.0 s
Coagulation Time (human plasma; APTT, Normal Donor 11): 93.6 s
Coagulation Time (human plasma; APTT, Normal Donor 12): 82.9 s
Coagulation Time (human plasma; APTT, Normal Donor 13): 85.5 s
Coagulation Time (human plasma; APTT, Normal Donor 14): 89.7 s
Coagulation Time (human plasma; APTT, Normal Donor 15): 81.2 s
Coagulation Time (human plasma; APTT, Normal Donor 16): 72.6 s
Coagulation Time (human plasma; APTT, Normal Donor 17): 108.0 s
Coagulation Time (human plasma; APTT, Normal Donor 18): 70.4 s
Coagulation Time (human plasma; APTT, Normal Donor 19): 93.6 s
Coagulation Time (human plasma; APTT, Normal Donor 20): 72.6 s
ability to act as an anticoagulant (in words) (human plasma; human plasma): effective anticoagulant
Relative Increase in Coagulation Time (marmoset plasma; PI-88 2.24 μg/ml): 1.40 fold
Relative Increase in Coagulation Time (marmoset plasma; PI-88 22.4 μg/ml): 2.86 fold
ability to act as an anticoagulant (in words) (marmoset plasma; marmoset plasma): effective anticoagulant
Relative Increase in Coagulation Time (sheep plasma; PI-88 2.24 μg/ml): 1.88 fold
Relative Increase in Coagulation Time (sheep plasma; PI-88 22.4 μg/ml): > 4.98 fold
ability to act as an anticoagulant (in words) (sheep plasma; sheep plasma): effective anticoagulant
Relative Increase in Coagulation Time (rabbit plasma; PI-88 2.24 μg/ml): 1.02 fold
Relative Increase in Coagulation Time (rabbit plasma; PI-88 22.4 μg/ml): 1.20 fold
ability to act as an anticoagulant (in words) (rabbit plasma; rabbit plasma): only weakly active
Relative Increase in Coagulation Time (dog plasma; PI-88 2.24 μg/ml): 1.24 fold
Relative Increase in Coagulation Time (dog plasma; PI-88 22.4 μg/ml): 2.42 fold
ability to act as an anticoagulant (in words) (dog plasma; dog plasma): effective anticoagulant
Relative Increase in Coagulation Time (rat plasma; PI-88 2.24 μg/ml): 1.54 fold
Relative Increase in Coagulation Time (rat plasma; PI-88 22.4 μg/ml): > 5.88 fold
ability to act as an anticoagulant (in words) (rat plasma; rat plasma): effective anticoagulant
Relative Increase in Coagulation Time (mouse plasma; PI-88 2.24 μg/ml): 1.13 fold
Relative Increase in Coagulation Time (mouse plasma; PI-88 22.4 μg/ml): 3.03 fold
ability to act as an anticoagulant (in words) (mouse plasma; mouse plasma): effective anticoagulant
inhibition of collagen- and ADP-induced platelet aggregation (in words) (Human platelet): very weak inhibitor
Relative Rate of Platelet Aggregation, ADP-induced Aggregation (Human platelet; PI-88 21 μg/ml): 74 ± 1
Relative Rate of Platelet Aggregation, ADP-induced Aggregation (Human platelet; PI-88 210 μg/ml): 72 ± 1
Relative Rate of Platelet Aggregation, ADP-induced Aggregation (Human platelet; PI-88 2100 μg/ml): 56 ± 2
Relative Rate of Platelet Aggregation, Collagen-induced Aggregation (Human platelet; PI-88 21 μg/ml): 97 ± 8
Relative Rate of Platelet Aggregation, Collagen-induced Aggregation (Human platelet; PI-88 210 μg/ml): 86 ± 10
Relative Rate of Platelet Aggregation, Collagen-induced Aggregation (Human platelet; PI-88 2100 μg/ml): 79 ± 0
enhancement of the ability of anti-thrombin III to inhibit thrombin (in words) (thrombin; initial studies): did not enhance
fold less active than heparin in enhancing anti-thrombin III mediated anti-thrombin activity (thrombin; two different chromogenic assays, data not shown): 700-7000 fold
fold less active than heparin or LMW heparin (Fragmin), anti-thrombin III mediated factor Xa inhibitory activity (factor Xa): 100-1000 fold
enhancement of the ability of heparin cofactor II to inhibit thrombin (in words) (heparin cofactor II): as effectively as heparin and dermatan sulfate
inactivation of the anticoagulant activity by protamine (in words) [1]: effectively inactivate

Laminarihexaose SO4
Increase in Coagulation Time (human plasma; APTT): 0.9 s/µg

Laminaritetraose SO4
Increase in Coagulation Time (human plasma; APTT): 2.9 s/µg

O=S(=O)(O)OC[C@H]1O[C@@](COS(=O)(=O)O)(O[C@H]2O[C@H](COS(=O)(=O)O)[C@@H](OS(=O)(=O)O)[C@H](OS(=O)(=O)O)[C@H]2OS(=O)(=O)O)[C@@H](OS(=O)(=O)O)[C@@H]1OS(=O)(=O)O [Sucrose SO4]
Increase in Coagulation Time (human plasma; APTT): 0.39 s/µg

Maltoheptaose SO4
anticoagulant activity (in words) (human plasma): quite effective anticoagulants
Increase in Coagulation Time (human plasma; APTT): 5.9 s/µg

Source: patent publication US6271215A, “Sulfated oligosaccharides having anticoagulant/antithrombotic activity” (The Australian National University, priority 1997, dated 2001)
